According to ChEMBL document CHEMBL1201862, “PubChem BioAssay data set” (2004):
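Protocol summary: plate cells (96-well), add compound at 5 concentrations, incubate 48 h, interpolate endpoints linearly. At the GI50, growth is halved.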 Activity calls are given as the source filed them. Rule as the data show it: active = GI50 up to about 1.1 µM and inactive = higher.

How the values were obtained:
Test in all cases: NCI-60 cell line screen, 48 h
KM12 = tested on: KM12
SK-MEL-2 = tested on: SK-MEL-2
CCRF-CEM = tested on: CCRF-CEM
NCI-H522 = tested on: NCI-H522
MDA-MB-231 = tested on: MDA-MB-231
SNB-75 = tested on: SNB-75
MDA-MB-435 = tested on: MDA-MB-435
M14 = tested on: M14
A498 = tested on: A498
SF-295 = tested on: SF-295
UO-31 = tested on: UO-31
SF-268 = tested on: SF-268
DU-145 = tested on: DU-145
K562 = tested on: K562
MDA-N = tested on: MDA-N
TK-10 = tested on: TK-10
SR = tested on: SR
U-251 = tested on: U-251
SNB-19 = tested on: SNB-19
OVCAR-3 = tested on: OVCAR-3

Measured: GI50

COc1ccc(NC(=O)NNS(=O)(=O)c2ccc(C)cc2)cc1
inactive: KM12 91.6 µM | SK-MEL-2 > 100 µM | CCRF-CEM > 100 µM | NCI-H522 45.1 µM | MDA-MB-231 > 100 µM | SNB-75 29.4 µM | MDA-MB-435 30.4 µM | M14 > 100 µM | A498 > 100 µM | SF-295 > 100 µM | UO-31 > 100 µM | SF-268 > 100 µM | DU-145 > 100 µM | K562 > 100 µM | MDA-N 32.7 µM | TK-10 > 100 µM | SR 63 µM | U-251 > 100 µM | SNB-19 > 100 µM

COc1ccc2c(c1)CCC(CN1CCN(CCOC(c3ccc(F)cc3)c3ccc(F)cc3)CC1)=C2
inactive: KM12 15.1 µM | SK-MEL-2 15.8 µM | CCRF-CEM 14.1 µM | NCI-H522 13.9 µM | MDA-MB-231 14.1 µM | SNB-75 46.5 µM | MDA-MB-435 16.8 µM | M14 9.31 µM | A498 8.36 µM | SF-295 22.2 µM | OVCAR-3 16.9 µM | SF-268 31.6 µM | DU-145 19 µM | K562 4.47 µM | MDA-N 11.8 µM | TK-10 14.3 µM | SR 3.71 µM | U-251 14.8 µM | SNB-19 42.5 µM

O=C1c2sc(-c3ccc(Cl)cc3)cc2-n2cccc21
inactive: KM12 > 100 µM | SK-MEL-2 > 100 µM | CCRF-CEM > 100 µM | NCI-H522 > 100 µM | MDA-MB-231 > 100 µM | SNB-75 > 100 µM | MDA-MB-435 > 100 µM | M14 > 100 µM | A498 > 100 µM | SF-295 > 100 µM | OVCAR-3 > 100 µM | UO-31 > 100 µM | SF-268 > 100 µM | DU-145 > 100 µM | K562 > 100 µM | MDA-N > 100 µM | TK-10 > 100 µM | SR > 100 µM | U-251 > 100 µM | SNB-19 > 100 µM

C#CCSC(C=C=C)P(=O)(OC(C)C)OC(C)C (configuration not stated)
inactive: KM12 > 100 µM | SK-MEL-2 > 100 µM | NCI-H522 23.3 µM | MDA-MB-231 > 100 µM | SNB-75 > 100 µM | MDA-MB-435 > 100 µM | M14 > 100 µM | A498 36.8 µM | SF-295 > 100 µM | OVCAR-3 > 100 µM | UO-31 > 100 µM | SF-268 90.8 µM | DU-145 > 100 µM | K562 23.7 µM | MDA-N > 100 µM | TK-10 43.2 µM | SR 39.5 µM | U-251 > 100 µM | SNB-19 > 100 µM

Cc1cc(O)nc2c3c(ccc12)OC(C)(C)C=C3
inactive: KM12 4.28 µM | SK-MEL-2 10.2 µM | CCRF-CEM 3.71 µM | NCI-H522 6.67 µM | MDA-MB-231 5.78 µM | SNB-75 5 µM | MDA-MB-435 1.82 µM | M14 5.53 µM | A498 10.2 µM | SF-295 10.3 µM | OVCAR-3 4.28 µM | UO-31 8.18 µM | SF-268 6.7 µM | DU-145 3.58 µM | K562 4.22 µM | MDA-N 2.08 µM | TK-10 > 100 µM | SR 2.44 µM | U-251 3.11 µM | SNB-19 4.55 µM
